Reference: paper PMC8744835, “Sterically Hindered Quaternary Phosphonium Salts (QPSs): Antimicrobial Activity and Hemolytic and Cytotoxic Properties” (International Journal of Molecular Sciences, 2021)

Experiments:
[1] = test system: Bacillus cereus ATCC 10702 NCTC 8035; assay: Antimicrobial activity, serial dilution technique in Mueller–Hinton Broth 2; format: cell-based; conditions: average of three ± SD, - means non-active; for MIC / MBC: Bacillus cereus, Bc; for MIC: read-out: Minimum Inhibitory Concentration (MIC), Bc; for MBC: read-out: Minimum Bactericidal and Fungicidal Concentration (MBC, MFC), Bc
Method: (§1) The synthesized compounds were tested for antimicrobial activity against a number of Gram-positive bacteria, Staphylococcus aureus (Sa), Bacillus cereus (Bc) and Enterococcus faecalis (Ef), and Gram-negative bacteria, Escherichia coli (Ec) and Pseudomonas aeruginosa (Pa), including the methicillin-resistant strains S. aureus MRSA-1 (resistant to fluoroquinolones and beta-lactams) and MRSA-2 (resistant to beta-lactams). The methicillin-resistant strains S. aureus were transferred by the Republican Clinical Hospital of the Republic of Tatarstan (Kazan). The fungicidal activity against Candida albicans (Ca) and Trichophyton mentagrophytes var. gypseum (Tm) was studied. These pathogens were chosen because they are the most widespread in the food industry and the healthcare system.
(§2) The antimicrobial activity of the QPSs was determined using the serial dilution technique in Mueller–Hinton Broth 2. The cultures used for testing included the Gram-positive bacteria Staphylococcus aureus ATCC 6538P FDA 209P, Enterococcus faecalis ATCC 2921 and Bacillus cereus ATCC 10702 NCTC 8035, the Gram-negative bacteria Escherichia coli ATCC 25922 and Pseudomonas aeruginosa ATCC 9027, and the fungi Trichophyton mentagrophytes var. gypseum 1773 and Candida albicans ATCC 10231; methicillin-resistant strains of S. aureus MRSA were obtained from hospital patients with chronic tonsillitis (MRSA-1) and sinusitis (MRSA-2) in the Republican Clinical Hospital (Kazan, Russia). […] The bacterial load was 3.0 × 10^5 cfu/mL. The results were recorded every 24 h for 5 days. The cultures were incubated at 37 °C. The experiment was repeated three times. […] The minimum inhibitory concentration (MIC) was defined as the minimum concentration of a compound that inhibits the growth of the corresponding test micro-organism. The growth of bacteria as well as the absence of growth due to the bacteriostatic action of a compound was recorded.

[2] = test system: Enterococcus faecalis ATCC 2921; assay: as above; format: cell-based; conditions: average of three ± SD, - means non-active
Method: as §1, §2

[3] = test system: Escherichia coli ATCC 25922; assay: as above; format: cell-based; conditions: average of three ± SD, - means non-active; for MIC: Escherichia coli, ATCC25922, Ec, read-out: Minimum Inhibitory Concentration (MIC), Ec
Method: as §1, §2

[4] = test system: Pseudomonas aeruginosa ATCC 9027; assay: as above; format: cell-based; conditions: average of three ± SD, - means non-active; for MBC / MIC: Pseudomonas aeruginosa, ATCC9027, Pa; for MBC: read-out: Minimum Bactericidal and Fungicidal Concentration (MBC, MFC), Pa; for MIC: read-out: Minimum Inhibitory Concentration (MIC), Pa
Method: as §1, §2

[5] = test system: Staphylococcus aureus ATCC 6538P FDA 209P; assay: as above; format: cell-based; conditions: average of three ± SD, - means non-active; for MIC / MBC: Staphylococcus aureus, Sa; for MIC: read-out: Minimum Inhibitory Concentration (MIC), Sa; for MBC: read-out: Minimum Bactericidal and Fungicidal Concentration (MBC, MFC), Sa
Method: as §1, §2

[6] = test system: methicillin-resistant S. aureus MRSA-1; assay: as above; format: cell-based, Staphylococcus aureus; conditions: - means non-active; for MIC / MBC: Staphylococcus aureus, MRSA; for MIC / Minimum Inhibitory Concentration (MIC), MRSA-1: MRSA-1 (resistant to fluoroquinolones and beta-lactams); for MIC: read-out: Minimum Inhibitory Concentration (MIC), MRSA-1; for MBC / Minimum Bactericidal and Fungicidal Concentration (MBC, MFC), MRSA-1: MRSA-1; for MBC: read-out: Minimum Bactericidal and Fungicidal Concentration (MBC, MFC), MRSA-1
Method: as §1, §2

[7] = test system: methicillin-resistant S. aureus MRSA-2; assay: as above; format: cell-based, Staphylococcus aureus; conditions: - means non-active; for MIC / Minimum Inhibitory Concentration (MIC), MRSA-2: MRSA-2 (resistant to beta-lactams); for MIC: read-out: Minimum Inhibitory Concentration (MIC), MRSA-2
Method: as §1, §2

[8] = test system: Candida albicans ATCC 10231; assay: Fungicidal activity, serial dilution technique; format: cell-based; conditions: average of three ± SD, - means non-active; for MIC: read-out: Minimum Inhibitory Concentration (MIC), Ca
Method: as §1
(§3) The antimicrobial activity of the QPSs was determined using the serial dilution technique in Mueller–Hinton Broth 2. The cultures used for testing included the Gram-positive bacteria Staphylococcus aureus ATCC 6538P FDA 209P, Enterococcus faecalis ATCC 2921 and Bacillus cereus ATCC 10702 NCTC 8035, the Gram-negative bacteria Escherichia coli ATCC 25922 and Pseudomonas aeruginosa ATCC 9027, and the fungi Trichophyton mentagrophytes var. gypseum 1773 and Candida albicans ATCC 10231; methicillin-resistant strains of S. aureus MRSA were obtained from hospital patients with chronic tonsillitis (MRSA-1) and sinusitis (MRSA-2) in the Republican Clinical Hospital (Kazan, Russia). Ciprofloxacin and ketoconazole were purchased from Sigma-Aldrich. The bacterial load was 3.0 × 10^5 cfu/mL. The results were recorded every 24 h for 5 days. The cultures were incubated at 37 °C. The experiment was repeated three times. […] The minimum inhibitory concentration (MIC) was defined as the minimum concentration of a compound that inhibits the growth of the corresponding test micro-organism. The growth of bacteria as well as the absence of growth due to the bacteriostatic action of a compound was recorded.

[9] = test system: Trichophyton mentagrophytes var. gypseum 1773; assay: Fungicidal activity, serial dilution technique; format: cell-based; conditions: Tm, average of three ± SD, - means non-active; for MBC / MIC: Trichophyton mentagrophytes; for MBC: read-out: Minimum Bactericidal and Fungicidal Concentration (MBC, MFC), Tm; for MIC: read-out: Minimum Inhibitory Concentration (MIC), Tm
Method: as §1, §3

[10] = test system: Escherichia coli ATCC 25922; assay: Antimicrobial activity, serial dilution technique in Mueller–Hinton Broth 2; format: cell-based; conditions: average of three ± SD, - means non-active; for MBC: Escherichia coli, ATCC25922, Ec, read-out: Minimum Bactericidal and Fungicidal Concentration (MBC, MFC), Ec
[11] = Candida albicans, ATCC10231, Ca

| SMILES | MIC [1] | Minimum Inhibitory Concentration (MIC), Ef [2] | MIC [3] | Minimum Inhibitory Concentration (MIC), Pa [4] | MIC [6] | MIC ([7]; Staphylococcus aureus, MRSA) | Minimum Inhibitory Concentration (MIC), Bc [1] | Minimum Inhibitory Concentration (MIC), Ec [3] | Minimum Inhibitory Concentration (MIC), Sa [5] | Minimum Bactericidal and Fungicidal Concentration (MBC, MFC), Bc [1] | MBC [4] | Minimum Bactericidal and Fungicidal Concentration (MBC, MFC), Sa [5] | Minimum Bactericidal and Fungicidal Concentration (MBC, MFC), MRSA-2 ([7]; MRSA-2) | Minimum Bactericidal and Fungicidal Concentration (MBC, MFC), Ca [8] | MIC [8, 11] | Minimum Bactericidal and Fungicidal Concentration (MBC, MFC), Ef [2] | Minimum Bactericidal and Fungicidal Concentration (MBC, MFC), MRSA-1 [6] | Minimum Bactericidal and Fungicidal Concentration (MBC, MFC), Tm [9] | Minimum Inhibitory Concentration (MIC), Tm [9] | Minimum Bactericidal and Fungicidal Concentration (MBC, MFC), Ec [10] | also measured |
| --- | --- | --- | --- | --- | --- | --- | --- | --- | --- | --- | --- | --- | --- | --- | --- | --- | --- | --- | --- | --- | --- |
| CCCCCCCCCCCCC[P+](C(C)(C)C)(C(C)(C)C)C(C)(C)C [Compound 13a, tri-tert-butyl(n-tridecyl)phosphonium] | 0.9 ± 0.07 µg/mL | 3.9 ± 0.3 µg/mL | 3.9 ± 0.02 µg/mL | 15.6 ± 1.3 µg/mL | 0.5 ± 0.04 µg/mL | 0.3 ± 0.02 µg/mL | – | – | – | 7.8 ± 0.6 µg/mL | 31.3 ± 2.4 µg/mL | 0.5 ± 0.04 µg/mL | 0.5 ± 0.03 µg/mL | 31.3 ± 2.2 µg/mL | 15.6 ± 1.2 µg/mL | – | – | – | – | – | MBC ([2]; Enterococcus faecalis, ATCC2921, Ef, read-out: Minimum Bactericidal and Fungicidal Concentration (MBC, MFC), Ef): 7.8 ± 0.6 µg/mL; MIC [5]: 0.2 ± 0.01 µg/mL; MBC [6]: 0.3 ± 0.02 µg/mL; MBC [9]: 125 ± 10 µg/mL; MIC [9]: 125 ± 10 µg/mL; MBC [10]: 3.9 ± 0.2 µg/mL |
| CCCCCCCCCCCCC[P+](C(C)(C)C)(C(C)(C)C)C(C)(C)C [Compound 13b] | – | 1.9 ± 0.1 µg/mL | – | 31.3 ± 2.3 µg/mL | – | – | 0.5 ± 0.04 µg/mL | 7.8 ± 0.6 µg/mL | 0.2 ± 0.01 µg/mL | 31.3 ± 2.3 µg/mL | – | 0.2 ± 0.01 µg/mL | 3.9 ± 0.3 µg/mL | 7.8 ± 0.6 µg/mL | – | 3.9 ± 0.3 µg/mL | 0.5 ± 0.03 µg/mL | 62.5 ± 5.3 µg/mL | 62.5 ± 5.2 µg/mL | 7.8 ± 0.6 µg/mL | Minimum Bactericidal and Fungicidal Concentration (MBC, MFC), Pa [4]: 31.3 ± 2.2 µg/mL; Minimum Inhibitory Concentration (MIC), MRSA-1 [6]: 0.3 ± 0.02 µg/mL; Minimum Inhibitory Concentration (MIC), MRSA-2 [7]: 0.3 ± 0.01 µg/mL; Minimum Inhibitory Concentration (MIC), Ca [8]: 7.8 ± 0.5 µg/mL |
| CCCCCCCCCCCCCC[P+](C(C)(C)C)(C(C)(C)C)C(C)(C)C [Compound 14a] | – | 1.9 ± 0.1 µg/mL | 1.9 ± 0.1 µg/mL | – | 0.5 ± 0.03 µg/mL | 0.5 ± 0.04 µg/mL | 7.8 ± 0.6 µg/mL | – | 1.9 ± 0.2 µg/mL | – | 125 ± 11 µg/mL | – | 62.5 ± 5.3 µg/mL | – | 7.8 ± 0.6 µg/mL | 3.9 ± 0.2 µg/mL | 7.8 ± 0.6 µg/mL | 125 ± 10 µg/mL | 125 ± 11 µg/mL | 1.9 ± 0.1 µg/mL | MBC [1]: 15.6 ± 1.3 µg/mL; MIC [4]: 15.6 ± 1.1 µg/mL; MBC [5]: 1.9 ± 0.1 µg/mL; MBC ([8]; Candida albicans, ATCC10231, Ca, read-out: Minimum Bactericidal and Fungicidal Concentration (MBC, MFC), Ca): 15.6 ± 1.2 µg/mL |

Now from value to molecule, other results behind:

| MIC [1] | Minimum Inhibitory Concentration (MIC), Ef [2] | MIC [3] | Minimum Inhibitory Concentration (MIC), Pa [4] | MIC [6] | MIC ([7]; Staphylococcus aureus, MRSA) | Minimum Inhibitory Concentration (MIC), Bc [1] | Minimum Inhibitory Concentration (MIC), Ec [3] | Minimum Inhibitory Concentration (MIC), Sa [5] | SMILES | Minimum Bactericidal and Fungicidal Concentration (MBC, MFC), Bc [1] | MBC [4] | Minimum Bactericidal and Fungicidal Concentration (MBC, MFC), Sa [5] | Minimum Bactericidal and Fungicidal Concentration (MBC, MFC), MRSA-2 ([7]; MRSA-2) | Minimum Bactericidal and Fungicidal Concentration (MBC, MFC), Ca [8] | MIC [8, 11] | Minimum Bactericidal and Fungicidal Concentration (MBC, MFC), Ef [2] | Minimum Bactericidal and Fungicidal Concentration (MBC, MFC), MRSA-1 [6] | Minimum Bactericidal and Fungicidal Concentration (MBC, MFC), Tm [9] | Minimum Inhibitory Concentration (MIC), Tm [9] | Minimum Bactericidal and Fungicidal Concentration (MBC, MFC), Ec [10] | also measured |
| --- | --- | --- | --- | --- | --- | --- | --- | --- | --- | --- | --- | --- | --- | --- | --- | --- | --- | --- | --- | --- | --- |
| – | 0.9 ± 0.08 µg/mL | – | 7.8 ± 0.6 µg/mL | – | – | 0.9 ± 0.07 µg/mL | 1.9 ± 0.1 µg/mL | 0.1 ± 0.008 µg/mL | CCCCCCCCCCCCCC[P+](C(C)(C)C)(C(C)(C)C)C(C)(C)C [Compound 14b] | 15.6 ± 1.2 µg/mL | – | 1.9 ± 0.1 µg/mL | 0.5 ± 0.03 µg/mL | 15.6 ± 1.2 µg/mL | – | 1.9 ± 0.1 µg/mL | 0.5 ± 0.03 µg/mL | 15.6 ± 1.3 µg/mL | 15.6 ± 1.3 µg/mL | 3.9 ± 0.2 µg/mL | Minimum Bactericidal and Fungicidal Concentration (MBC, MFC), Pa [4]: 62.5 ± 5.4 µg/mL; Minimum Inhibitory Concentration (MIC), MRSA-1 [6]: 0.3 ± 0.01 µg/mL; Minimum Inhibitory Concentration (MIC), MRSA-2 [7]: 0.3 ± 0.02 µg/mL; Minimum Inhibitory Concentration (MIC), Ca [8]: 3.9 ± 0.3 µg/mL |
| 0.5 ± 0.03 µg/mL | – | – | – | 0.5 ± 0.02 µg/mL | 0.5 ± 0.04 µg/mL | – | 1.9 ± 0.1 µg/mL | – | CCCCCCCCCCCCCCC[P+](C(C)(C)C)(C(C)(C)C)C(C)(C)C [Compound 15a] | – | 7.8 ± 0.6 µg/mL | – | – | 3.9 ± 0.2 µg/mL | 1.9 ± 0.1 µg/mL | 1.9 ± 0.1 µg/mL | – | – | – | – | MBC [1]: 15.6 ± 1.3 µg/mL; MIC ([2]; Enterococcus faecalis, ATCC2921, Ef, read-out: Minimum Inhibitory Concentration (MIC), Ef): 0.5 ± 0.03 µg/mL; MIC [4]: 7.8 ± 0.7 µg/mL; MBC [5]: 0.5 ± 0.03 µg/mL; MIC [5]: 0.2 ± 0.01 µg/mL; MBC [6]: 0.5 ± 0.04 µg/mL; MBC ([7]; Staphylococcus aureus, MRSA, MRSA-2, read-out: Minimum Bactericidal and Fungicidal Concentration (MBC, MFC), MRSA-2): 0.5 ± 0.03 µg/mL; MBC [9]: 62.5 ± 5.7 µg/mL; MIC [9]: 62.5 ± 5.3 µg/mL; MBC [10]: 3.9 ± 0.2 µg/mL |
